Data: patent publication US20200368338A1, “CONJUGATE OF WT1-DERIVED PEPTIDES AND COMPOSITION COMPRISING THE SAME” (SUMITOMO DAINIPPON PHARMA CO., LTD., priority 2017, published 2020)

Tested on: HLA-A2402 transgenic mouse
Assay: Evaluation of CTL inducing ability in vivo in HLA-A2402 transgenic mouse (IFNγ ELISPOT assay of splenocytes)
Settings: intradermal emulsion with Montanide ISA 51 VG, tail base, two sites, splenocytes one week after administration stimulated with peptide of SEQ ID NO: 4 at 10 μg/ml, FIG. 1
Experimental: The solution was diluted with water for injection to a concentration of 5.0 mg/mL, and then converted to an emulsion by addition of an equal volume of Montanide ISA 51 VG. […] One week after the administration, the mice were sacrificed with CO2 gas. Splenocytes were harvested from spleens removed from the mice. […] In particular, an ELISPOT plate was treated with an anti-mouse-IFNγ antibody on the day before preparation of the splenocyte samples. On the next day, the plate was blocked by treatment with an RPMI 1640 medium with 10% FBS. […] For in vitro stimulation of the cells, the peptide of SEQ ID NO: 4 was dissolved in DMSO at a concentration of 40 mg/ml, diluted with RPMI 1640 with 10% FBS to 40 μg/ml, and added to the splenocyte-containing wells at a final concentration of 10 μg/ml. […] Then, after removal of the culture medium from the wells, the ELISPOT plate was subjected to treatment for cell staining in accordance with the manufacturer's protocol. Stained spots were counted on ImmunoSpot Analyzer (C.T.L.).

CYTWNQMNL [peptide of SEQ ID NO: 4, HLA-A2402-restricted WT1 peptide]
induction of CTLs responsive to the peptide of SEQ ID NO: 4 (IFNγ-producing splenocytes): induced CTLs responsive to the peptide of SEQ ID NO: 4
